The record followed here is ChEMBL document CHEMBL1687734, “Pharmacokinetics of EDP-420 after multiple oral doses in healthy adult volunteers and in a bioequivalence study” (Antimicrob Agents Chemother, 2009).

What all share (assay type): ADME, organism-based
Data set [1] relates to Homo sapiens. Kind of data set: Cmax in healthy human plasma assessed as EDP-420 9-keto level at 200 mg, po once daily for 3 days measured after 1 day by HPLC-tandem mass spectrometry. Details: dose 200 mg, route oral. Conditions: in vivo, 24 h.
The test system of data set [2] is Homo sapiens. Kind of data set: Cmax in healthy human plasma assessed as EDP-420 9-keto level at 200 mg, po once daily for 3 days measured after 3 days by HPLC-tandem mass spectrometry. Details: dose 200 mg, route oral. Conditions: in vivo, 72 h.
Data set [3] relates to Homo sapiens. Put plainly: Tmax in healthy human plasma assessed as EDP-420 9-keto level at 200 mg, po once daily for 3 days measured after 1 day. Conditions: in vivo, 24 h.
Data set [4] relates to Homo sapiens. Put plainly: Tmax in healthy human plasma assessed as EDP-420 9-keto level at 200 mg, po once daily for 3 days measured after 3 days. The settings on record: in vivo, 72 h.
Data set [5] relates to Homo sapiens. Put plainly: AUC (0 to last) in healthy human plasma assessed as EDP-420 9-keto level at 200 mg, po once daily for 3 days measured after 1 day. Details: dose 200 mg, time 0 - last, route oral. Conditions: in vivo, 24 h.
Data set [6] relates to Homo sapiens. Put plainly: AUC (0 to last) in healthy human plasma assessed as EDP-420 9-keto level at 200 mg, po once daily for 3 days measured after 3 days. Conditions: in vivo, 72 h. Also noted: dose 200 mg, time 0 - last, route oral.
Data set [7] relates to Homo sapiens. Put plainly: AUC (0 to infinity) in healthy human plasma assessed as EDP-420 9-keto level at 200 mg, po once daily for 3 days measured after 3 days. Also noted: dose 200 mg, time infinity, route oral. The settings on record: in vivo, 72 h.
Data set [8] concerns Homo sapiens. Put plainly: Ratio of AUC (0 to 24 hrs) in healthy human plasma assessed as EDP-420 9-keto level at 200 mg, po once daily for 3 days measured on day 3 to AUC (0 to 24 hrs) in healthy human plasma assessed as EDP-420 9-keto level at 200 mg, po once daily for 3 days measured on day 1. Conditions: in vivo.
The test system of data set [9] is Homo sapiens. Put plainly: Half life in healthy human plasma assessed as EDP-420 9-keto level at 200 mg, po administered as once daily for 3 days measured after 3 days. Conditions: in vivo, 72 h.
The test system of data set [10] is Homo sapiens. Kind of data set: Cmax in healthy human plasma assessed as EDP-420 9-keto level at loading dose of 400 mg/day, po once daily for 3 days measured after 1 day by HPLC-tandem mass spectrometry. Details: dose 400 mg/day, route oral. The settings on record: in vivo, 24 h.
Data set [11] deals with Homo sapiens. Kind of data set: Tmax in healthy human plasma assessed as EDP-420 9-keto level at loading dose of 400 mg/day, po once daily for 3 days measured after 1 day. The settings on record: in vivo, 24 h.
Data set [12] has as its system Homo sapiens. Put plainly: Cmax in healthy human plasma assessed as EDP-420 9-keto level at 400 mg administered once on day 1 followed by 200 mg once daily for 2 days during 3 days of treatment measured after 3 days by HPLC-tandem mass spectrometry. Also noted: dose 400 mg. Conditions: in vivo, 72 h.
Data set [13] relates to Homo sapiens. Kind of data set: AUC (0 to last) in healthy human plasma assessed as EDP-420 9-keto level at 400 mg administered once on day 1 followed by 200 mg once daily for 2 days during 3 days of treatment measured after 3 days. Conditions: in vivo, 72 h. Also noted: dose 400 mg, time 0 - last.
The subject of data set [14] is Homo sapiens. Kind of data set: AUC (0 to infinity) in healthy human plasma assessed as EDP-420 9-keto level at 400 mg administered once on day 1 followed by 200 mg once daily for 2 days during 3 days of treatment measured after 3 days. Details: dose 400 mg, time infinity. Conditions: in vivo, 72 h.
The test system of data set [15] is Homo sapiens. Kind of data set: Ratio of AUC (0 to 24 hrs) in healthy human plasma assessed as EDP-420 9-keto level at loading dose of 400 mg/day, po administered as single dose measured on 1 day to AUC (0 to 24 hrs) in healthy human plasma assessed as EDP-420 9-keto level at 400 mg administered once on day 1 followed by 200 mg once daily for 2 days during 3 days of treatment measured on day 3. The settings on record: in vivo.

The test system of data set [16] is Homo sapiens. Put plainly: Half life in healthy human plasma assessed as EDP-420 9-keto level at 400 mg administered once on day 1 followed by 200 mg once daily for 2 days during 3 days of treatment measured after 3 days. The settings on record: in vivo, 72 h.
Data set [17] concerns Homo sapiens. Kind of data set: Cmax in 8 hrs fasted healthy human plasma assessed as EDP-420 9-keto level at 200 mg, po administered as single dose of suspension by HPLC-tandem mass spectrometry. Also noted: dose 200 mg, route oral. The settings on record: in vivo.
Data set [18] has as its system Homo sapiens. Put plainly: Cmax in 8 hrs fasted healthy human plasma assessed as EDP-420 9-keto level at 200 mg, po administered as single dose of two-100 mg capsules by HPLC-tandem mass spectrometry. Also noted: dose 200 mg, route oral. The settings on record: in vivo.
The subject of data set [19] is Homo sapiens. Kind of data set: Cmax in high-fat fed healthy human plasma assessed as EDP-420 9-keto level at 200 mg, po administered as single dose of two-100 mg capsules by HPLC-tandem mass spectrometry. Also noted: dose 200 mg, route oral. The settings on record: in vivo.
The test system of data set [20] is Homo sapiens. Put plainly: Tmax in 8 hrs fasted healthy human plasma assessed as EDP-420 9-keto level at 200 mg, po administered as single dose of suspension. Conditions: in vivo.
In data set [21] the test system is Homo sapiens. Put plainly: Tmax in 8 hrs fasted healthy human plasma assessed as EDP-420 9-keto level at 200 mg, po administered as single dose of two-100 mg capsules. The settings on record: in vivo.
The test system of data set [22] is Homo sapiens. Put plainly: Tmax in high-fat fed healthy human plasma assessed as EDP-420 9-keto level at 200 mg, po administered as single dose of two-100 mg capsules. The settings on record: in vivo.
For data set [23], the system named is Homo sapiens. Kind of data set: AUC (0 to last) in 8 hrs fasted healthy human plasma assessed as EDP-420 9-keto level at 200 mg, po administered as single dose of suspension. Also noted: dose 200 mg, time 0 - last, route oral. The settings on record: in vivo.
Data set [24] concerns Homo sapiens. Put plainly: AUC (0 to last) in 8 hrs fasted healthy human plasma assessed as EDP-420 9-keto level at 200 mg, po administered as single dose of two-100 mg capsules. Also noted: dose 200 mg, time 0 - last, route oral. Conditions: in vivo.
In data set [25] the test system is Homo sapiens. Kind of data set: AUC (0 to last) in high-fat fed healthy human plasma assessed as EDP-420 9-keto level at 200 mg, po administered as single dose of two-100 mg capsules. Details: dose 200 mg, route oral, time 0 - last. The settings on record: in vivo.
For data set [26], the system named is Homo sapiens. Kind of data set: AUC (0 to infinity) in 8 hrs fasted healthy human plasma assessed as EDP-420 9-keto level at 200 mg, po administered as single dose of suspension. The settings on record: in vivo. Also noted: dose 200 mg, time infinity, route oral.
Data set [27] concerns Homo sapiens. Kind of data set: AUC (0 to infinity) in 8 hrs fasted healthy human plasma assessed as EDP-420 9-keto level at 200 mg, po administered as single dose of two-100 mg capsules. Details: dose 200 mg, time infinity, route oral. The settings on record: in vivo.
The subject of data set [28] is Homo sapiens. Put plainly: AUC (0 to infinity) in high-fat fed healthy human plasma assessed as EDP-420 9-keto level at 200 mg, po administered as single dose of two-100 mg capsules. Details: dose 200 mg, time infinity, route oral. The settings on record: in vivo.
Data set [29] has as its system Homo sapiens. Kind of data set: Half life in 8 hrs fasted healthy human plasma assessed as EDP-420 9-keto level at 200 mg, po administered as single dose of suspension. Conditions: in vivo.
For data set [30], the system named is Homo sapiens. Kind of data set: Half life in 8 hrs fasted healthy human plasma assessed as EDP-420 9-keto level at 200 mg, po administered as single dose of two-100 mg capsules. Conditions: in vivo.
Data set [31] relates to Homo sapiens. Kind of data set: Half life in high-fat fed healthy human plasma assessed as EDP-420 9-keto level at 200 mg, po administered as single dose of two-100 mg capsules. Conditions: in vivo.
Data set [32] concerns Homo sapiens. Put plainly: Ratio of drug concentration in 8 hrs fasted healthy human plasma at 200 mg, po administered as single dose of suspension to drug concentration in 8 hrs fasted healthy human plasma assessed as EDP-420 9-keto level at 200 mg, po administered as single dose of suspension. Conditions: in vivo.
Data set [33] relates to Homo sapiens. Put plainly: Ratio of drug concentration in high-fat fed healthy human plasma at 200 mg, po administered as single dose of two-100 mg capsules to drug concentration in high-fat fed healthy human plasma assessed as EDP-420 9-keto level at 200 mg, po administered as single dose of two-100 mg capsules. The settings on record: in vivo.
Data set [34] in a line: Drug concentration in Epithelial lining fluid of healthy human at 500 mg, po administered as single dose after 24 hrs. Conditions: read-out: Drug uptake.
A short description of data set [35]: Drug concentration in Alveolar macrophage of healthy human at 500 mg, po administered as single dose after 24 hrs. The settings on record: alveolar macrophages, read-out: Drug uptake.

Consider `CC[C@H]1OC(=O)[C@H](C)C(=O)[C@H](C)[C@@H](O[C@@H]2O[C@H](C)C[C@H](N(C)C)[C@H]2O)[C@@]2(C)C[C@@H](C)C(=O)[C@H](C)[C@@H](OC/C(=N\OCc3ccc(-n4cccn4)nc3)CO2)[C@]1(C)O`, for which the highest concentration (Cmax) with Homo sapiens [1] worked out at 30.5 ng/mL; with Homo sapiens [2] it was 46 ng/mL; with Homo sapiens [10], 49 ng/mL; with Homo sapiens [12], 47.6 ng/mL; in the data set on Homo sapiens [17], 24.9 ng/mL; with Homo sapiens [18] it was 23.7 ng/mL. The Cmax with Homo sapiens [19] was 36.1 ng/mL. Besides, the Tmax was determined as 5 h with Homo sapiens [3]; 5 h with Homo sapiens [4]; 5 h in the data set with Homo sapiens [11]; 5 h in the data set on Homo sapiens [20]; 5 h in the data set on Homo sapiens [21]; 6 h in the data set on Homo sapiens [22]. Moreover, the exposure (AUC) in the data set on Homo sapiens [5] came out at 461 ng·h/mL; in the data set with Homo sapiens [6] it was 2134 ng·h/mL; in the data set with Homo sapiens [7], 2209 ng·h/mL; in the data set with Homo sapiens [13] it was 2154 ng·h/mL; in the data set with Homo sapiens [14], 2228 ng·h/mL; in the data set on Homo sapiens [23], 754 ng·h/mL. Besides, the AUC in the data set with Homo sapiens [24] came to 745 ng·h/mL; in the data set on Homo sapiens [25], 1220 ng·h/mL; in the data set with Homo sapiens [26], 842 ng·h/mL; in the data set on Homo sapiens [27] it was 837 ng·h/mL; in the data set on Homo sapiens [28], 1326 ng·h/mL. Also, the figures for the “Ratio AUC” value in the data set with Homo sapiens [8] and in the data set with Homo sapiens [15] were 1.76 and 1.11, respectively. Also, the t1/2 with Homo sapiens [9] is 29.5 h; in the data set on Homo sapiens [16], 27.8 h; in the data set with Homo sapiens [29], 29.5 h; with Homo sapiens [30] it was 30.5 h; in the data set on Homo sapiens [31], 28.4 h. For the same compound, the Ratio is recorded as 0.1 in the data set on Homo sapiens [32] and 0.16 in the data set with Homo sapiens [33].

For the compound `CC[C@H]1OC(=O)[C@H](C)[C@@H](O[C@H]2C[C@@](C)(OC)[C@@H](O)[C@H](C)O2)[C@H](C)[C@@H](O[C@@H]2O[C@H](C)C[C@H](N(C)C)[C@H]2O)[C@](C)(O)C[C@@H](C)CN(C)[C@H](C)[C@@H](O)[C@]1(C)O` [AZITHROMYCIN], the concentration at 24 h in [34] was determined as 90 ng/mL; in data set [35] it was 30800 ng/mL.

By Cmax is commonly meant the maximum level reached in the sampled fluid or tissue. The Tmax is the time from dosing to the highest level. What is called AUC is concentration integrated over time.
